Assay results: patent publication US12473289B2, “Heterocyclic compounds as delta-5 desaturase inhibitors and methods of use” (Amgen Inc., priority 2019, dated 2025)

The molecules below were run against Delta-5-Desaturase (D5D) (Homo sapiens (Human), UniProt O60427) (assay: In vitro measurement of Delta-5-Desaturase inhibitory activity using DGLA-CoA and Arachidonyl-CoA mass spectrometric assays). Conditions: membrane preparations of D5D-overexpressing HEK293 6E cells; averaged over at least two independent runs.
Type: biochemical
Description: In vitro Measurement of Delta-5-Desaturase Inhibitory Activity using DGLA-CoA and Arachidonyl-CoA Mass Spectrometric Assays
Membrane preparations of D5D-overexpressing HEK293 6E cells were prepared in which the total protein concentration was 5.6 mg/mL. Stock D5D membrane preparations were diluted in D5D assay buffer (25 mM 2-amino-2-(hydroxymethyl)-1,3-propanediol, pH 7.5 containing 10 mM MgCl2, 1 mM octyl glucoside (SigmaAldrich 0-8001), 1 mM tris(2-carboxyethyl)phosphine hydrochloride (SigmaAldrich 646547)) to a final D5D membrane concentration of 10 μg/mL in an assay plate containing serially diluted test compounds. To 15 μL of this D5D preparation was added 15 μL of a substrate solution (0.25 mM NADH (nicotinamide adenine dinucleotide, Roche Diag. 10107735001), 0.25 mM adenosine triphosphate (SigmaAldrich A-3377), 0.05 mM coenzyme A hydrate (SigmaAldrich C-4282), and 0.01 mM DGLA (dihomo-g-linolenic acid, Sigma E-4504) in the same D5D assay buffer. After one-hour incubation at ambient temperature acetonitrile (30 μL) was added to quench the reaction and plates were centrifuged for 10 min @3,000 rpm. Mass spectrometric analysis involved a Rapidfire 360 SPE system coupled to an ABSciex API4000 Triple Quadrupole mass spectrometer using a C18 SPE cartridge (G9203-80105) with ionization in negative mode (solvent A=100% water; solvent B=100% acetonitrile, each solvent containing 5 mM ammonium acetate). DGLA-CoA and Arachidonyl-CoA were detected by multiple reaction monitoring (MRM) of the doubly charged parent ions at m/z 526.6 and 525.6, respectively.
Sx is value from unknown sample, So is value from DMSO alone and Sc is value from no enzyme well. For CRC analysis, the % of inhibitions were analyzed with 4 Parameter Logistic Model or Sigmoidal Dose-Response Model using XLfit (IDBS, Guilford, UK). The potency of the test item was expressed as IC50 nM, corresponding to the test item concentration able to inhibit the 50% of the enzyme maximal response. IC50 values were averaged values determined by at least two independent runs.
This assay may be used to test any of the compounds described herein to assess and characterize a compound's ability to inhibit D5D.

Sequence of Delta-5-Desaturase (D5D) (O60427 whole entry, species assumed): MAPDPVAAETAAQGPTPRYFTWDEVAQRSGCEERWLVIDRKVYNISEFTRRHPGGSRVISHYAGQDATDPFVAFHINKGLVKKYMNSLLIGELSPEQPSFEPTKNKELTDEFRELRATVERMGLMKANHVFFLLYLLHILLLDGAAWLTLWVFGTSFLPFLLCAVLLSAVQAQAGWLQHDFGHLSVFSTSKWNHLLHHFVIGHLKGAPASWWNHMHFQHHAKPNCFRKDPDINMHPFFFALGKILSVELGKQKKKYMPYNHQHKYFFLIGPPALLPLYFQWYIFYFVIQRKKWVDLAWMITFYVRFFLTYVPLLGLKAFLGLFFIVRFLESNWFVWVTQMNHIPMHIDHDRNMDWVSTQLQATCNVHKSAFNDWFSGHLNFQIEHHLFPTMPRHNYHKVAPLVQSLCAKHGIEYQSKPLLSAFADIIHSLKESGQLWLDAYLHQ

| IC50 [nM] | SMILES |
| --- | --- |
| 562 | C[S@@+]([O-])c1ccn2c(=O)c(-c3ccc(OCC(F)(F)F)cc3)c(C(F)(F)F)nc2c1 [Example 15-2, 8-((R)-methylsulfinyl)-3-(4-(2,2,2-trifluoroethoxy)phenyl)-2-(trifluoromethyl)-4H-pyrido[1,2-a]pyrimidin-4-one] |
| 158 | COc1ccn2c(=O)c(-c3nnn(CC(F)(F)C(F)(F)F)c3I)c(C(F)(F)F)nc2c1 [Example 52, 3-[5-Iodo-1-(2,2,3,3,3-pentafluoropropyl)-1H-1,2,3-triazol-4-yl]-8-methoxy-2-(trifluoromethyl)-4H-pyrido[1,2-a]pyrimidin-4-one] |
| 3.6 | CCCc1ccc(-c2c(C(F)(F)F)nc3cc(OC)ccn3c2=O)cc1 [Example 1-79, 8-methoxy-3-(4-propylphenyl)-2-(trifluoromethyl)-4H-pyrido[1,2-a]pyrimidin-4-one] |
| 2540 | CN(C)C(=O)c1ccn2c(=O)c(-c3ccc(OCC(F)(F)F)cc3)c(C(F)(F)F)nc2c1 [Example 12-3, N,N-dimethyl-4-oxo-3-(4-(2,2,2-trifluoroethoxy)phenyl)-2-(trifluoromethyl)-4H-pyrido[1,2-a]pyrimidine-8-carboxamide] |
| 3.7 | O=c1c(-c2cnn(CC(F)(F)C(F)(F)F)c2)c(C(F)(F)F)nc2cnccn12 [Example 39-25, 3-[1-(2,2,3,3,3-pentafluoropropyl)-1H-pyrazol-4-yl]-2-(trifluoromethyl)-4H-pyrazino[1,2-a]pyrimidin-4-one] |
| 112 | [2H]C([2H])([2H])Oc1ccn2c(=O)c(-c3ccc(OCCF)cc3)c(C(F)(F)F)nc2n1 [Example 1-55, 3-(4-(2-fluoroethoxy)phenyl)-8-(methyloxy-d3)-2-(trifluoromethyl)-4H-pyrimido[1,2-a]pyrimidin-4-one] |
| > 67000 | O=c1c(-c2cnc(OCC(F)(F)F)nc2)c(C(F)(F)F)nc2ccc(C3CC3)cn12 [Example 39-20, 7-cyclopropyl-3-[2-(2,2,2-trifluoroethoxy)pyrimidin-5-yl]-2-(trifluoromethyl)-4H-pyrido[1,2-a]pyrimidin-4-one] |
| 19.9 | Cc1ccc2nc(C(F)(F)F)c(-c3cnn(CCC(F)(F)F)c3)c(=O)n2n1 [Example 39-33, 7-methyl-2-(trifluoromethyl)-3-[1-(3,3,3-trifluoropropyl)-1H-pyrazol-4-yl]-4H-pyrimido[1,2-b]pyridazin-4-one] |
| 179 | Cc1cn2c(=O)c(-c3cnn(CC(F)(F)C(F)(F)F)c3)c(C(F)(F)F)nc2c(C)n1 [Example 39-43, 7,9-dimethyl-3-[1-(2,2,3,3,3-pentafluoropropyl)-1H-pyrazol-4-yl]-2-(trifluoromethyl)-4H-pyrazino[1,2-a]pyrimidin-4-one] |
| 21.5 | [2H]C([2H])([2H])Oc1ccn2c(=O)c(-c3ccc(OCC(F)(F)F)nc3)c(C(F)(F)F)nc2c1 [Example 1-64, 8-(methyloxy-d3)-3-(6-(2,2,2-trifluoroethoxy)-3-pyridinyl)-2-(trifluoromethyl)-4H-pyrido[1,2-a]pyrimidin-4-one] |
| 540 | CN1CCn2c(nc(C(F)(F)F)c(-c3cnn(CC(F)(F)C(F)(F)F)c3)c2=O)C1 [Example 64, 8-Methyl-3-[1-(2,2,3,3,3-pentafluoropropyl)-1H-pyrazol-4-yl]-2-(trifluoromethyl)-4H,6H,7H,8H,9H-pyrimido[1,2-a]pyrazin-4-one] |
| 48.2 | [2H]C([2H])([2H])n1c(=O)ccn2c(=O)c(-c3ccc(OCC(F)(F)F)cc3)c(C(F)(F)F)nc12 [Example 11-1, 1-(Methyl-d3)-7-(4-(2,2,2-trifluoroethoxy)phenyl)-8-(trifluoromethyl)-2H-pyrimido[1,2-a]pyrimidine-2,6(1H)-dione] |
| 8.2 | O=c1c(-c2cnn(CC(F)(F)C(F)(F)F)c2)c(C(F)(F)F)nc2cc(Cl)ccn12 [Example 2-6, 8-chloro-3-(1-(2,2,3,3,3-pentafluoropropyl)-1H-pyrazol-4-yl)-2-(trifluoromethyl)-4H-pyrido[1,2-a]pyrimidin-4-one] |
| 278 | COc1ccn2c(=O)c(-c3cnn(CC#N)c3)c(C(F)(F)F)nc2c1 [Example 1-26, (4-(8-methoxy-4-oxo-2-(trifluoromethyl)-4H-pyrido[1,2-a]pyrimidin-3-yl)-1H-pyrazol-1-yl)acetonitrile] |
| 180 | COc1ccn2c(=O)c(-c3cnn(CCCC(F)(F)F)c3)c(C(F)(F)F)nc2n1 [Example 1-38, 8-methoxy-3-(1-(4,4,4-trifluorobutyl)-1H-pyrazol-4-yl)-2-(trifluoromethyl)-4H-pyrimido[1,2-a]pyrimidin-4-one] |
| 28 | Cc1cn2c(=O)c(-c3cnn(CC(F)(F)C(F)(F)F)c3)c(C(F)(F)F)nc2cn1 [Example 39-31, 7-methyl-3-[1-(2,2,3,3,3-pentafluoropropyl)-1H-pyrazol-4-yl]-2-(trifluoromethyl)-4H-pyrazino[1,2-a]pyrimidin-4-one] |
| 19.1 | Cc1cc2nc(C(F)(F)F)c(-c3cnn(CC(F)(F)C(F)(F)F)c3)c(=O)n2cc1F [Example 39-56, 7-fluoro-8-methyl-3-[1-(2,2,3,3,3-pentafluoropropyl)-1H-pyrazol-4-yl]-2-(trifluoromethyl)-4H-pyrido[1,2-a]pyrimidin-4-one] |
| 120 | CNC(=O)c1ccn2c(=O)c(-c3ccc(OCC(F)(F)F)cc3)c(C(F)(F)F)nc2c1 [Example 12-1, N-Methyl-4-oxo-3-(4-(2,2,2-trifluoroethoxy)phenyl)-2-(trifluoromethyl)-4H-pyrido[1,2-a]pyrimidine-8-carboxamide] |
| 36.4 | O=c1c(-c2cnn(-c3ccc(F)cc3)c2)c(C(F)(F)F)nc2ccccn12 [Example 1-46, 3-(1-(4-fluorophenyl)-1H-pyrazol-4-yl)-2-(trifluoromethyl)-4H-pyrido[1,2-a]pyrimidin-4-one] |
| 2350 | O=c1c(-c2cnn(CC(F)(F)C(F)(F)F)c2)c(C(F)(F)F)nc2cc(N3CCC3)ccn12 [Example 1-88, 8-(1-azetidinyl)-3-(1-(2,2,3,3,3-pentafluoropropyl)-1H-pyrazol-4-yl)-2-(trifluoromethyl)-4H-pyrido[1,2-a]pyrimidin-4-one] |
| 168 | COc1nc2nc(C(F)(F)F)c(-c3cnn(CC(F)(F)C(F)(F)F)c3)c(=O)n2cc1F [Example 42, 7-Fluoro-8-methoxy-3-[1-(2,2,3,3,3-pentafluoropropyl)-1H-pyrazol-4-yl]-2-(trifluoromethyl)-4H-[1,3]diazino[1,2-a]pyrimidin-4-one] |
| 87.6 | COc1ccn2c(=O)c(-c3cnc(OCC(F)(F)F)nc3)c(C(F)(F)F)nc2c1 [Example 37, 8-Methoxy-3-[2-(2,2,2-trifluoroethoxy)pyrimidin-5-yl]-2-(trifluoromethyl)-4H-pyrido[1,2-a]pyrimidin-4-one] |
| 33.5 | O=c1c(-c2cnn(CC(F)(F)C(F)(F)F)c2)c(C(F)(F)F)nc2cc(OCF)cnn12 [Example 47, 8-(Fluoromethoxy)-3-[1-(2,2,3,3,3-pentafluoropropyl)-1H-pyrazol-4-yl]-2-(trifluoromethyl)-4H-pyrimido[1,2-b]pyridazin-4-one] |
| 67 | Cc1cnn2c(=O)c(-c3cnn(CC(F)(F)C(F)(F)F)c3)c(C(F)(F)F)nc2c1 [Example 39-40, 8-methyl-3-[1-(2,2,3,3,3-pentafluoropropyl)-1H-pyrazol-4-yl]-2-(trifluoromethyl)-4H-pyrimido[1,2-b]pyridazin-4-one] |
| 241 | Cc1cc2nc(C(F)(F)F)c(-c3ccc(OCC(F)(F)F)cc3)c(=O)n2cc1Cl [Example 41-3, 7-chloro-8-methyl-3-[4-(2,2,2-trifluoroethoxy)phenyl]-2-(trifluoromethyl)-4H-pyrido[1,2-a]pyrimidin-4-one] |

| SMILES | IC50 [nM] |
| --- | --- |
| O=c1c(-c2ccc(OCC(F)(F)F)cc2)c(C(F)(F)F)nc2cc(-c3ncco3)ccn12 [Example 29, 8-(1,3-Oxazol-2-yl)-3-(4-(2,2,2-trifluoroethoxy)phenyl)-2-(trifluoromethyl)-4H-pyrido[1,2-a]pyrimidin-4-one] | 97.1 |
| COc1ccn2c(=O)c(-c3ccc(OCC(F)(F)C(F)F)cc3)c(C(F)(F)F)nc2c1 [Example 9-1, 8-Methoxy-3-(4-(2,2,3,3-tetrafluoropropoxy)phenyl)-2-(trifluoromethyl)-4H-pyrido[1,2-a]pyrimidin-4-one] | 11.1 |
| COc1ccn2c(=O)c(-c3nc(OCC(F)(F)F)cs3)c(C(F)(F)F)nc2c1 [Example 51, 8-Methoxy-3-[4-(2,2,2-trifluoroethoxy)-1,3-thiazol-2-yl]-2-(trifluoromethyl)-4H-pyrido[1,2-a]pyrimidin-4-one] | 2980 |
| COc1ccn2c(=O)c(-c3ncc(CCC(F)(F)F)s3)c(C(F)(F)F)nc2c1 [Example 58, 8-Methoxy-2-(trifluoromethyl)-3-[5-(3,3,3-trifluoropropyl)-1,3-thiazol-2-yl]-4H-pyrido[1,2-a]pyrimidin-4-one] | 594 |
